From patent publication US7704995B2 (Exelixis, Inc., priority 2003, dated 2010)
Where two headings read alike, the source gives them in different places.

Molecular target: T1, Chk1 (Homo sapiens, UniProt O14757)
T1 construct: purchased Upstate Biotechnology
T1 sequence (O14757 1-476): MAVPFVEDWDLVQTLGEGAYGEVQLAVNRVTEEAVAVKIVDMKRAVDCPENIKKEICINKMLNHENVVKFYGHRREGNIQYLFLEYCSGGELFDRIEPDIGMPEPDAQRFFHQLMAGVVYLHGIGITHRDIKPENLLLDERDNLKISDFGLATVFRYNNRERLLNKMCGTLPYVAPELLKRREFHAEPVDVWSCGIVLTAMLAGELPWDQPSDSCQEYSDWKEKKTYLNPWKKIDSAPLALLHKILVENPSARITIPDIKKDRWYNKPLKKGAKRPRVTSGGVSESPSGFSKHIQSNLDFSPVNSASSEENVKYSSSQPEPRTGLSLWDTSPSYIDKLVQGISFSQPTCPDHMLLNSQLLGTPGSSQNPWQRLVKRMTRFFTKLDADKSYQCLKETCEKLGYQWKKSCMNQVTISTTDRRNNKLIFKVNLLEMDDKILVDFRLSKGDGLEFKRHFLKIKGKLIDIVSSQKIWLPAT
Assay: Chk1 kinase assay: incorporation of γ-33P ATP into immobilized myelin basic protein
Type: biochemical
Settings: read-out: Chk1 IC50
In short: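 Incorporation of γ-33P into myelin basic protein coated on plates was scintillation-counted after 1 h at room temperature, duplicate points. Unlabeled ATP was 10 μM with 10 nM Chk1, 30 μM with 20 nM Chk2; buffer Hepes pH 7.6, MgCl2, DTT, 1% DMSO. Output IC50, optionally converted to Ki.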

[1] = Table 11, Chk1 only, class symbols A-D

Structure (SMILES)	IC50 (Table 11, Chk1 only)	IC50	also measured
Nc1ncc(-c2cccc(C(=O)NCc3ccc(F)c(F)c3)c2)nc1-c1nc([C@H]2CCCNC2)n[nH]1 [Example 867, 3-(5-amino-6-{3-[(3S)-piperidin-3-yl]-1H-1,2,4-triazol-5-yl}pyrazin-2-yl)-N-[(3,4-difluorophenyl)methyl]benzamide]	–	–	IC50 [1]: < 50 nM
Nc1ncc(-c2cccc(O)c2)nc1C(=O)N[C@H]1CCCNC1 [Example 840, 3-amino-6-(3-hydroxyphenyl)-N-[(3S)-piperidin-3-yl]pyrazine-2-carboxamide]	–	–	IC50 [1]: < 50 nM
CNC(=O)c1nc(-c2cccc(C(=O)NCc3ccc4c(c3)NCCO4)c2)cnc1N [Example 380, 3-amino-6-(3-{[(3,4-dihydro-2H-1,4-benzoxazin-6-ylmethyl)amino]carbonyl}phenyl)-N-methylpyrazine-2-carboxamide]	–	50 to 1000 nM	–
CNC(=O)c1nc(-c2cccc(C(=O)NCc3cc(C(F)(F)F)cc(C(F)(F)F)c3)c2)cnc1N [Example 262, 3-amino-6-{3-[({[3,5-bis(trifluoromethyl)phenyl]methyl}amino)carbonyl]phenyl}-N-methylpyrazine-2-carboxamide]	–	50 to 1000 nM	–
CNC(=O)c1nc(-c2cccc(OCCN3CCC(Cc4ccccc4)CC3)c2)cnc1N [Example 187, 3-amino-N-methyl-6-[3-({2-[4-(phenylmethyl)piperidin-1-yl]ethyl}oxy)phenyl]pyrazine-2-carboxamide]	–	50 to 1000 nM	–
Nc1ncc(-c2cccc(C(=O)NCc3ccccc3-c3ccccc3)c2)nc1C(=O)N[C@H]1CCCNC1 [Example 847, 3-amino-6-(3-{[(biphenyl-2-ylmethyl)amino]carbonyl}phenyl)-N-[(3S)-piperidin-3-yl]pyrazine-2-carboxamide]	–	–	IC50 [1]: < 50 nM
CNC(=O)c1nc(-c2cccc(NC(=O)c3ccco3)c2)cnc1N [Example 124, 3-amino-6-{3-[(furan-2-ylcarbonyl)amino]phenyl}-N-methylpyrazine-2-carboxamide]	–	50 to 1000 nM	–
Nc1ncc(-c2cccc(CNC(=O)Nc3ccccc3Br)c2)nc1C(=O)N[C@H]1CCCNC1 [Example 922, 3-amino-6-{3-[({[(2-bromophenyl)amino]carbonyl}amino)methyl]phenyl}-N-[(3S)-piperidin-3-yl]pyrazine-2-carboxamide]	–	–	IC50 [1]: < 50 nM
CNC(=O)c1nc(-c2cccc(C(=O)N[C@H]3CCN(Cc4ccccc4)C3)c2)cnc1N [Example 196, 3-amino-N-methyl-6-[3-({[(3S)-1-(phenylmethyl)pyrrolidin-3-yl]amino}carbonyl)phenyl]pyrazine-2-carboxamide]	–	50 to 1000 nM	–
CNC(=O)c1nc(-c2cccc(C(=O)NCc3ccc(C)c(F)c3F)c2)cnc1N [Example 298, 3-amino-6-[3-({[(2,3-difluoro-4-methylphenyl)methyl]amino}carbonyl)phenyl]-N-methylpyrazine-2-carboxamide]	–	50 to 1000 nM	–
CNC(=O)c1nc(-c2cccc(C(=O)NCc3cccc(Br)c3)c2)cnc1N [Example 239, 3-amino-6-[3-({[(3-bromophenyl)methyl]amino}carbonyl)phenyl]-N-methylpyrazine-2-carboxamide]	–	50 to 1000 nM	–
CNC(=O)c1nc(-c2cccc(C(=O)NCc3ccc(OCCN4CCOCC4)cc3)c2)cnc1N [Example 324, 3-amino-N-methyl-6-(3-{[({4-[(2-morpholin-4-ylethyl)oxy]phenyl}methyl)amino]carbonyl}phenyl)pyrazine-2-carboxamide]	–	50 to 1000 nM	–
CNC(=O)c1nc(-c2cccc(C(=O)NCc3c(OC)cc(OC)cc3OC)c2)cnc1N [Example 258, 3-amino-N-methyl-6-{3-[({[2,4,6-tris(methyloxy)phenyl]methyl}amino)carbonyl]phenyl}pyrazine-2-carboxamide]	–	50 to 1000 nM	–
Cc1ccc(CNC(=O)c2cccc(-c3cnc(N)c(C(=O)N[C@H]4CCCNC4)n3)c2)c(F)c1F [Example 858, 3-amino-6-[3-({[(2,3-difluoro-4-methylphenyl)methyl]amino}carbonyl)phenyl]-N-[(3S)-piperidin-3-yl]pyrazine-2-carboxamide]	–	–	IC50 [1]: < 50 nM
CNC(=O)c1nc(-c2cccc(CNC(=O)c3ccc(-c4ccccc4)cc3)c2)cnc1N [Example 332, 3-amino-6-(3-{[(biphenyl-4-ylcarbonyl)amino]methyl}phenyl)-N-methylpyrazine-2-carboxamide]	–	< 50 nM	–
CNC(=O)c1nc(-c2cccc(C(=O)NCCNc3ccccc3)c2)cnc1N [Example 412, 3-amino-N-methyl-6-[3-({[2-(phenylamino)ethyl]amino}carbonyl)phenyl]pyrazine-2-carboxamide]	–	50 to 1000 nM	–
CNC(=O)c1nc(-c2cccc(NC(=O)c3cccc(OC)c3)c2)cnc1N [Example 105, 3-amino-N-methyl-6-[3-({[3-(methyloxy)phenyl]carbonyl}amino)phenyl]pyrazine-2-carboxamide]	–	50 to 1000 nM	–
Nc1ncc(-c2cccc(CNC(=O)c3cccs3)c2)nc1C(=O)N[C@H]1CCCNC1 [Example 938, 3-amino-N-[(3S)-piperidin-3-yl]-6-(3-{[(2-thienylcarbonyl)amino]methyl}phenyl)pyrazine-2-carboxamide]	–	–	IC50 [1]: < 50 nM
CNC(=O)c1nc(-c2cccc(CNC(=O)Cc3ccccc3)c2)cnc1N [Example 330, 3-amino-N-methyl-6-(3-{[(phenylacetyl)amino]methyl}phenyl)pyrazine-2-carboxamide]	–	50 to 1000 nM	–
CNC(=O)c1nc(-c2cccc(C(=O)N[C@@H]3C[C@H]3c3ccccc3)c2)cnc1N [Example 148, 3-amino-N-methyl-6-[3-({[(1R,2S)-2-phenylcyclopropyl]amino}carbonyl)phenyl]pyrazine-2-carboxamide]	–	50 to 1000 nM	–

Now from value to compound, other results behind:

IC50 (Table 11, Chk1 only)	IC50	Structure (SMILES)	also measured
< 50 nM	–	Nc1ncc(-c2cccc(C(=O)NCc3ccc(OC(F)(F)F)cc3)c2)nc1C(=O)N[C@H]1CCNC1 [Example 744, 3-amino-N-[(3S)-pyrrolidin-3-yl]-6-(3-{[({4-[(trifluoromethyl)oxy]phenyl}methyl)amino]carbonyl}phenyl)pyrazine-2-carboxamide]	–
≥ 10000 nM	–	Nc1ncc(-c2cccc(CO)c2)nc1-c1nc(C2CCCCN2)n[nH]1 (centres unmarked) [Example 698, {3-[5-amino-6-(3-piperidin-2-yl-1H-1,2,4-triazol-5-yl)pyrazin-2-yl]phenyl}methanol]	–
50 to 1000 nM	–	CNC(=O)c1nc(-c2cccc(CNC3CC(C)c4c(F)ccc(F)c43)c2)cnc1N (centres unmarked) [Example 459, 3-amino-6-(3-{[(4,7-difluoro-3-methyl-2,3-dihydro-1H-inden-1-yl)amino]methyl}phenyl)-N-methylpyrazine-2-carboxamide]	–
1000 to 10000 nM	–	Nc1ncc(-c2cccc(C(=O)NCc3ccccc3)c2)nc1/C=N/NCCO [Example 677, 3-(5-amino-6-{(E)-[(2-hydroxyethyl)hydrazono]methyl}pyrazin-2-yl)-N-(phenylmethyl)benzamide]	–
50 to 1000 nM	–	CNNC(=O)c1nc(-c2cccc(CN[C@H]3CCc4ccccc43)c2)cnc1N [Example 553, 3-amino-6-(3-{[(1S)-2,3-dihydro-1H-inden-1-ylamino]methyl}phenyl)-N′-methylpyrazine-2-carbohydrazide]	–
< 50 nM	–	Nc1ncc(-c2cccc(C(=O)N[C@@H]3c4ccccc4C[C@@H]3O)c2)nc1C(=O)NC[C@H]1CCNC1 [Example 787, 3-amino-6-[3-({[(1R,2S)-2-hydroxy-2,3-dihydro-1H-inden-1-yl]amino}carbonyl)phenyl]-N-[(3S)-pyrrolidin-3-ylmethyl]pyrazine-2-carboxamide]	–
50 to 1000 nM	–	CNC(=O)c1cc(-c2cccc(CNC3CCc4ccc(Br)cc43)c2)cnc1N (centres unmarked) [Example 519, 2-amino-5-(3-{[(6-bromo-2,3-dihydro-1H-inden-1-yl)amino]methyl}phenyl)-N-methylpyridine-3-carboxamide]	–
≥ 10000 nM	–	CCOC(=O)CN/N=C(\C)c1nc(-c2cccc(C(=O)NCc3ccccc3)c2)cnc1N [Example 628, ethyl ((2E)-2-{1-[3-amino-6-(3-{[(phenylmethyl)amino]carbonyl}phenyl)pyrazin-2-yl]ethylidene}hydrazino)acetate]	–
≥ 10000 nM	–	C/C(=N\Nc1ccc(C#N)cc1)c1nc(-c2cccc(C(=O)NCc3ccccc3)c2)cnc1N [Example 631, 3-{5-amino-6-[(1E)-N-(4-cyanophenyl)ethanehydrazonoyl]pyrazin-2-yl}-N-(phenylmethyl)benzamide]	–
1000 to 10000 nM	–	Nc1ncc(-c2cccc(CNC3CCc4ccccc43)c2)nc1C(=O)NC1CCCCC1 (centres unmarked) [Example 533, 3-amino-N-cyclohexyl-6-{3-[(2,3-dihydro-1H-inden-1-ylamino)methyl]phenyl}pyrazine-2-carboxamide]	–
50 to 1000 nM	–	CCN1CC[C@H](NC(=O)c2nc(-c3cccc(C(=O)N[C@@H]4c5ccccc5C[C@@H]4O)c3)cnc2N)C1 [Example 731, 3-amino-N-[(3S)-1-ethylpyrrolidin-3-yl]-6-[3-({[(1R,2S)-2-hydroxy-2,3-dihydro-1H-inden-1-yl]amino}carbonyl)phenyl]pyrazine-2-carboxamide]	–
≥ 10000 nM	–	CC(C)(C)OC(=O)N1CCC(NC(=O)c2nc(-c3cccc(C(=O)NCc4ccccc4)c3)cnc2N)CC1 [Example 562, 1,1-dimethylethyl 4-({[3-amino-6-(3-{[(phenylmethyl)amino]carbonyl}phenyl)pyrazin-2-yl]carbonyl}amino)piperidine-1-carboxylate]	–
